{"source": "patent US20230055953A1", "about": "“AGENT FOR ADJUVANT THERAPY” (TAIHO PHARMACEUTICAL CO., LTD., priority 2019, published 2023)", "test_system": "B16F10.A24/SART2^93-101 cells", "assay": "Lung metastatic model: intravenous transplantation of B16F10.A24/SART2^93-101 cells, count of metastatic pulmonary nodules", "format": "in vivo, mouse", "details": "B2m^tm2(HLA-A24/H-2Db/B2M)Tai mice; emulsion with Montanide ISA 51 VG subcutaneously on Day 1, Day 8, Day 15; lungs resected Day 28; compared with control group, p=0.0014, Student's t-test", "description": "Eleven-week-old B2m^tm2(HLA-A24/H-2Db/B2M)Tai mice (J. Immunol.: 198, 516-527, 2017) were randomly divided into groups each consisting of 10 mice. The day of grouping was designated Day 0.\nThe B16F10.A24/SART2^93-101 cells (PLoS One: 13, e0199249, 2018) were cultured using the Dulbecco's Modified Eagle's Medium (Sigma-Aldrich) containing 10% FBS. The B16F10.A24/SART2^93-101 cells were subjected to subculture in an incubator at 37° C. in the presence of 5% CO2 two times a week at a ratio of 1:25 to 1:40.\nOn the day of grouping of mice (Day 0), the B16F10.A24/SART2^93-101 cell suspension prepared using D-PBS (FUJIFILM Wako Pure Chemical Corporation) was transplanted into the tail veins of mice at 1×10^6 cells/0.1 ml.\nThe mouse models are found to undergo recurrence of tumor cells transplanted into the blood in the lung. Accordingly, such mouse models can be regarded as simulating the recurrence mechanism caused by cancer metastasis in humans. By verifying the effects in such models, accordingly, the inhibitory effects on tumor metastasis and recurrence can be verified. […]\nThe lungs were resected 28 days after transplantation of the B16F10.A24/SART2^93-101 cells (Day 28), and the number of metastatic pulmonary nodules was visually counted."}
{"substance": "PEP5-RR-PEP9-RR-PEP6-RR-PEP4 (DYSARWNEIRRQIRPIFSNRRRVYDYNCHVDLRRLLQAEAPRL) [TPV06]", "values": [{"measurement": "number of metastatic pulmonary nodules", "value": "significantly reduced"}]}
